The results in this text go back to patent publication US20240148821A1, “PHARMACEUTICAL USE OF CYCLIC PEPTIDE COMPOUND” (CHUGAI SEIYAKU KABUSHIKI KAISHA, priority 2021, published 2024).

Numbered stars: 1 amine (or outer) side, 2 acyl side, 3 side chain; on linkers, the order of the positions; unused ones are H or OH. Bridge positions count the residues as written; N and C are the ends. Square brackets hold non-standard residues; d marks the D form. Peptide text beside a SMILES is read from it. * marks the point of attachment. NMeAbu(3,3-F2-piperidino) = CN[C@@H](CCN1CCCC(F)(F)C1)C(=O)O; hPhe(3-Cl-4-CF3) = N[C@@H](CCc1ccc(C(F)(F)F)c(Cl)c1)C(=O)O; NMePhe(4-CF3) = CN[C@@H](Cc1ccc(C(F)(F)F)cc1)C(=O)O; Piperazinyl(4-(3-oxetanyl)) = C1OCC1N1CCN(*)CC1; NMeAbu(4,4,4-F3) = CN[C@@H](CC(F)(F)F)C(=O)O; NMePhe(4-Me) = CN[C@@H](Cc1ccc(C)cc1)C(=O)O; NMedβ3hAla = C[C@H](CC(=O)[*:2])N(C)[*:1]; Phe(3-I) = N[C@@H](Cc1cccc(I)c1)C(=O)O; Phe(2-F) = N[C@@H](Cc1ccccc1F)C(=O)O; NMeCha = CN[C@@H](CC1CCCCC1)C(=O)O; Hyp = O=C(O)[C@@H]1C[C@@H](O)CN1; NMeChg = CN[C@H](C(=O)O)C1CCCCC1; NMeF = CN[C@@H](Cc1ccccc1)C(=O)O; NMeI = CC[C@H](C)[C@H](NC)C(=O)O; NMeD = CN[C@@H](CC(=O)O)C(=O)O; NMeL = CN[C@@H](CC(C)C)C(=O)O; Chg = N[C@H](C(=O)O)C1CCCCC1; NMeV = CN[C@H](C(=O)O)C(C)C; NMeA = CN[C@@H](C)C(=O)O; NMeAib = CNC(C)(C)C(=O)O; Piperidide = C1CCN(*)CC1; Pyrrolidide = C1CCN(*)C1; dNMeA = CN[C@H](C)C(=O)O; Ac5c = NC1(C(=O)O)CCCC1; Aze = O=C(O)[C@@H]1CCN1; Sar = CNCC(=O)O

The subject of this assay is Human pancreatic cancer cell line AsPC-1 (G12D mutation Kras). As to the kind of experiment: AsPC-1 cell growth inhibition (AsPC-1 CGI). It is filed as cell-based. As to conditions: read-out: AsPC-1 cell growth inhibition, 50% growth inhibitory concentration (IC50 value); 96 hours, CellTiter-Glo, values classified in ranges.
Protocol: Test compounds were serially dilated with dimethyl sulfoxide, and 200 nL was then dispensed to a U-bottom 96-well plate using Labcyte Echo. […] The cell suspension was dispensed to a. plate containing a test compound at 100 μL per well and incubated at 37° C. in a 5% carbon dioxide gas incubator. 96 hours later, 80 μL of CellTiter-Glo (Promega) was added to each well and fluorescence was measured.
With `CC[C@H](C)[C@@H]1NC(=O)[C@H](CC(C)C)N(C)C(=O)C[C@@H](C(=O)N(C)C)N(C)C(=O)[C@H]([C@@H](C)CC)N(C)C(=O)[C@H](C)NC(=O)[C@H](CCN2CCCC(F)(F)C2)N(C)C(=O)[C@H](CCc2ccc(C(F)(F)F)c(Cl)c2)NC(=O)CN(C)C(=O)[C@H](Cc2ccc(C)cc2)N(C)C(=O)[C@@H]2CCN2C(=O)[C@H](C)N(C)C1=O` [Compound 1135] ([NMeL]I[NMeA][Aze][NMePhe(4-Me)][Sar][hPhe(3-Cl-4-CF3)][NMeAbu(3,3-F2-piperidino)]A[NMeI][NMeD]-NMe2; lactam N-11), the IC50 was greater than 500 nM.

As to `CC[C@H](C)[C@@H]1NC(=O)[C@H](CC(C)C)N(C)C(=O)C[C@@H](C)N(C)C(=O)[C@H](CC(C)C)NC(=O)C(C)(C)N(C)C(=O)[C@H](CC(C)C)NC(=O)[C@H](CCc2ccc(C(F)(F)F)c(Cl)c2)NC(=O)CN(C)C(=O)[C@H](Cc2ccc(C(F)(F)F)cc2)N(C)C(=O)CN(C)C(=O)CN(C)C1=O` [Compound 1396] (cyclo(I[Sar][Sar][NMePhe(4-CF3)][Sar][hPhe(3-Cl-4-CF3)]L[NMeAib]L[NMedβ3hAla][NMeL])), the IC50 was greater than 500 nM.

In the case of `CCO[C@@H]1C[C@H]2C(=O)NC3(CCCC3)C(=O)N(C)[C@@H](C3CCCCC3)C(=O)N(C)[C@H](C(=O)N3CCCC3)CC(=O)N(C)[C@@H](CC(F)(F)F)C(=O)N[C@@H]([C@@H](C)CC)C(=O)N(C)CC(=O)N(C)CC(=O)N(C)[C@@H](Cc3ccc(C(F)(F)F)cc3)C(=O)N(C)CC(=O)N[C@@H](CCc3ccc(C(F)(F)F)c(Cl)c3)C(=O)N2C1` [Compound 1139] ([NMeAbu(4,4,4-F3)]I[Sar][Sar][NMePhe(4-CF3)][Sar][hPhe(3-Cl-4-CF3)][Hyp](Et)[Ac5c][NMeChg][NMeD]-Pyrrolidide; lactam N-11), the IC50 was no more than 20 nM.

In the case of `CC[C@H](C)[C@@H]1NC(=O)[C@H](CC(C)C)N(C)C(=O)C[C@@H](C(=O)N2CCCCC2)N(C)C(=O)[C@H](C2CCCCC2)NC(=O)C2(CCCC2)NC(=O)[C@@H]2CCCN2C(=O)[C@H](CCc2ccc(C(F)(F)F)c(Cl)c2)NC(=O)CN(C)C(=O)[C@H](CC2CCCCC2)N(C)C(=O)CN(C)C(=O)CN(C)C1=O` [Compound 1354] ([NMeL]I[Sar][Sar][NMeCha][Sar][hPhe(3-Cl-4-CF3)]P[Ac5c][Chg][NMeD]-Piperidide; lactam N-11), the IC50 is greater than 500 nM.

In the case of `COC[C@@H]1NC(=O)[C@H](CC(C)C)N(C)C(=O)C[C@@H](C(=O)N2CCCCC2)N(C)C(=O)[C@H](C(C)C)N(C)C(=O)C2(CCCC2)NC(=O)[C@@H]2CCCN2C(=O)[C@H](CCc2ccc(C(F)(F)F)c(Cl)c2)NC(=O)CN(C)C(=O)[C@H](CC2CCCCC2)N(C)C(=O)[C@@H]2CCN2C(=O)[C@H](C)N(C)C1=O` [Compound 7] ([NMeL]S(Me)[NMeA][Aze][NMeCha][Sar][hPhe(3-Cl-4-CF3)]P[Ac5c][NMeV][NMeD]-Piperidide; lactam N-11), the IC50 was greater than 500 nM.

For `CC[C@H](C)[C@@H]1NC(=O)[C@H](C)N(C)C(=O)C[C@@H](C(=O)N2CCCCC2)N(C)C(=O)[C@H](C(C)C)N(C)C(=O)C2(CCCC2)NC(=O)[C@@H]2CCCN2C(=O)[C@H](CCc2ccc(C(F)(F)F)c(Cl)c2)NC(=O)[C@@H](C)N(C)C(=O)[C@H](CC2CCCCC2)N(C)C(=O)[C@@H]2CCN2C(=O)[C@H](C)N(C)C1=O` [Compound 1103] ([NMeA]I[NMeA][Aze][NMeCha][dNMeA][hPhe(3-Cl-4-CF3)]P[Ac5c][NMeV][NMeD]-Piperidide; lactam N-11), the IC50 was greater than 500 nM.

On to `CC[C@H](C)[C@@H]1NC(=O)[C@H](CC(C)C)N(C)C(=O)C[C@@H](C(=O)N2CCCCC2)N(C)C(=O)[C@H](CC(C)C)NC(=O)[C@H](Cc2ccccc2)N(C)C(=O)[C@H](C)NC(=O)[C@H](Cc2cccc(I)c2)NC(=O)CN(C)C(=O)[C@H](Cc2ccc(C)cc2)N(C)C(=O)CN(C)C(=O)CN(C)C1=O` [Compound 619] ([NMeL]I[Sar][Sar][NMePhe(4-Me)][Sar][Phe(3-I)]A[NMeF]L[NMeD]-Piperidide; lactam N-11), for which the IC50 was greater than 500 nM.

`CC[C@H](C)[C@@H]1NC(=O)[C@H](CC(C)C)N(C)C(=O)C[C@@H](C(=O)N2CCN(C3COC3)CC2)NC(=O)[C@H](C(C)C)N(C)C(=O)C2(CCCC2)NC(=O)[C@@H]2CCCN2C(=O)[C@H](CCc2ccc(C(F)(F)F)c(Cl)c2)NC(=O)CN(C)C(=O)[C@H](CC2CCCCC2)N(C)C(=O)[C@@H]2CCN2C(=O)[C@H](C)N(C)C1=O` [Compound 1294] ([NMeL]I[NMeA][Aze][NMeCha][Sar][hPhe(3-Cl-4-CF3)]P[Ac5c][NMeV]D-{Piperazinyl(4-(3-oxetanyl))}; lactam N-11): the IC50 was greater than 500 nM.

`CC[C@H](C)[C@@H]1NC(=O)[C@H](CC(C)C)N(C)C(=O)C[C@@H](C(=O)N2CCCCC2)N(C)C(=O)[C@H](CC(C)C)NC(=O)C(C)(C)N(C)C(=O)[C@H](Cc2ccccc2F)NC(=O)[C@H](Cc2cccc(I)c2)NC(=O)CN(C)C(=O)[C@H](Cc2ccc(C)cc2)N(C)C(=O)CN(C)C(=O)CN(C)C1=O` [Compound 556] ([NMeL]I[Sar][Sar][NMePhe(4-Me)][Sar][Phe(3-I)][Phe(2-F)][NMeAib]L[NMeD]-Piperidide; lactam N-11): the IC50 is greater than 500 nM.
